Test results as given in patent publication US20220062240A1, “METHODS OF TREATING CANCER USING A CLK INHIBITOR” (BioSplice Therapeutics, Inc., priority 2018, published 2022).
Like-named read-outs stand apart in the source and are kept apart here.

Key:
[1] = test system: prostate cancer (5 cell lines); assay: CellTiter-Glo Viability Assay, prostate cancer; format: cell-based; conditions: Homo sapiens
[2] = molecular target: T1, CLK2 (Homo sapiens, UniProt P49760); assay: CLK2 kinase activity assay (Z-lyte, Ser/Thr 6 peptide); format: biochemical; conditions: recombinant CLK2 kinase, ATP 60 μM; read-out: EC50
T1 construct: purchased Thermo Fisher (Life Technologies), Z'-LYTE Kinase Assay Kits
Method: All reactions were performed in duplicate.

[3] = test system: pancreatic cancer (8 cell lines); assay: CellTiter-Glo Viability Assay, pancreatic cancer; format: cell-based; conditions: Homo sapiens, inhibition of cancer cell proliferation
[4] = molecular target: CLK3 (Homo sapiens, UniProt P49761); assay: CLK3 kinase activity assay (Z-lyte, Ser/Thr 18 peptide)
Method: Each compound was dissolved in DMSO as a 10 mM stock and used to prepare compound source plates.
This is a non-radioactive assay using fluorescence resonance energy transfer (FRET) between coumarin and fluorescein to detect kinase activity which is represented as a ratio of coumarin emission/fluorescein emission.
All reactions were performed in duplicate. Unphosphorylated (“0% Control”) and phosphorylated (“100% control”) forms of Ser/Thr 18 served as control reactions. Additionally, an 11-point dose-response curve of Staurosporine (1 uM top) was run to serve as a positive compound control.
After incubation, Development Reagent A was diluted in Development Buffer then added to the reaction and allowed to further incubate for one hour at room temperature.
Dose-response curves were generated and inhibitory concentration (IC50) values were calculated using non-linear regression curve fit in the Dotmatics' Studies Software (Bishops Stortford, UK).
Compounds were acoustically transferred on 1536-well plates (Echo 550, LabCyte) instrument. Kinase, peptide, and ATP reagents from the Z′-LYTE Kinase Assay Kits (Thermo Fisher) were dispensed onto the compound plates using an EL406 liquid dispenser (BioTek). Plates were incubated in the dark at room temperature for 1 hr. Development reagent was added to the plates and then incubated in the dark at room temperature for 1 hr. Fluorescence signal form the plate was then read using an EnVision Multilabel Plate Reader (Perkin Elmer).

[5] = test system: colorectal cancer (6 cell lines); assay: CellTiter-Glo Viability Assay, colorectal cancer; format: cell-based; conditions: Homo sapiens, inhibition of cancer cell proliferation
[6] = test system: liver cancer (3 cell lines); assay: CellTiter-Glo Viability Assay, liver cancer; format: cell-based; conditions: Homo sapiens, inhibition of cancer cell proliferation
[7] = test system: haematopoietic & lymphoid tumors (13 cell lines); assay: CellTiter-Glo Viability Assay, haematopoietic & lymphoid tumors; format: cell-based; conditions: Homo sapiens, inhibition of cancer cell proliferation
[8] = test system: T47D; assay: CellTiter-Glo Viability Assay, breast cancer; format: cell-based; conditions: Homo sapiens, 96 h, breast cancer, four days, read-out: EC50
[9] = test system: DU4475; assay: CellTiter-Glo Viability Assay, breast cancer; format: cell-based; conditions: Homo sapiens, DU-4475, 96 h; DU4475, breast cancer, four days; read-out: EC50
[10] = test system: ZR-75-1; assay: CellTiter-Glo Viability Assay, breast cancer; format: cell-based; conditions: Homo sapiens, 96 h; ZR-75-1, breast cancer, four days; read-out: EC50
[11] = test system: MDA-MB-231-Luc; assay: CellTiter-Glo Viability Assay, breast cancer; format: cell-based; conditions: Homo sapiens, 96 h; MDA-MB-231-Luc, breast cancer, four days; read-out: EC50
[12] = test system: HCC1599; assay: CellTiter-Glo Viability Assay, breast cancer; format: cell-based; conditions: Homo sapiens, 96 h; HCC1599, breast cancer, four days; read-out: EC50
[13] = test system: CAMA1; assay: CellTiter-Glo Viability Assay, breast cancer; format: cell-based; conditions: Homo sapiens, CAMA-1, 96 h; CAMA1, breast cancer, four days; read-out: EC50
[14] = test system: MCF7; assay: CellTiter-Glo Viability Assay, breast cancer; format: cell-based; conditions: Homo sapiens, 96 h; MCF7, breast cancer, four days; read-out: EC50
[15] = test system: BT-549; assay: CellTiter-Glo Viability Assay, breast cancer; format: cell-based; conditions: Homo sapiens, 96 h; BT-549, breast cancer, four days; read-out: EC50
[16] = test system: all 50 cell lines; assay: CellTiter-Glo Viability Assay, average across all cell lines; format: cell-based; conditions: Homo sapiens; across all 50 cell lines; read-out: average EC50 for inhibition of cancer cell proliferation
Method in brief: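 Cells were plated at 300-3,000 per well in their own media, then treated with compound in duplicate, with DMSO wells as controls. After four days at 37° C and 5% CO2, CellTiter-Glo was added, and luminescence was read. EC50s were fitted.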

[17] = test system: ovarian cancer (4 cell lines); assay: CellTiter-Glo Viability Assay, ovarian cancer; format: cell-based; conditions: Homo sapiens, inhibition of cancer cell proliferation
[18] = test system: lung cancer (4 cell lines); assay: CellTiter-Glo Viability Assay, lung cancer; format: cell-based; conditions: Homo sapiens, inhibition of cancer cell proliferation
[19] = DU-145, read-out: Prostate cancer EC50 Du-145
[20] = PC-3, PC3 cell line, inhibition of cancer cell proliferation, read-out: Prostate cancer EC50 PC3
[21] = 22Rv1 cell line, inhibition of cancer cell proliferation, read-out: Prostate cancer EC50 22Rv1
[22] = LNCap clone FGC cell line, inhibition of cancer cell proliferation, read-out: Prostate cancer EC50 LNCap clone FGC
[23] = VCaP (Sigma) cell line, inhibition of cancer cell proliferation, read-out: Prostate cancer EC50 VCaP (Sigma)
[24] = BXPC-3, BxPC3 cell line, read-out: Pancreatic cancer, EC50 BxPC3
[25] = CAPAN-1, Capan1 cell line, read-out: Pancreatic cancer, EC50 Capan1
[26] = Capan-2, Capan2 cell line, read-out: Pancreatic cancer, EC50 Capan2
[27] = MIA PaCa-2 cell line, read-out: Pancreatic cancer, EC50 MIA PaCa-2
[28] = PANC 05.04 cell line, read-out: Pancreatic cancer, EC50 PANC 05.04
[29] = PANC-1 cell line, read-out: Pancreatic cancer, EC50 PANC-1
[30] = UPAFII cell line, read-out: Pancreatic cancer, EC50 UPAFII
[31] = HCT-116, HCT116 cell line, read-out: Colorectal cancer, EC50 (μM) HCT116
[32] = HT-29, HT29 cell line, read-out: Colorectal cancer, EC50 (μM) HT29
[33] = SW-620, SW620 cell line, read-out: Colorectal cancer, EC50 (μM) SW620
[34] = DLD-1 cell line, read-out: Colorectal cancer, EC50 (μM) DLD-1
[35] = SW48 cell line, read-out: Colorectal cancer, EC50 (μM) SW48
[36] = SW480 cell line, read-out: Colorectal cancer, EC50 (μM) SW480
[37] = SNU-398, SNU398 cell line, read-out: Liver cancer, EC50 SNU398
[38] = HEPG2 cell line, read-out: Liver cancer, EC50 HEPG2
[39] = PLC/PRF/5 cell line, read-out: Liver cancer, EC50 PLC/PRF/5
[40] = DND41, DND-41 cell line, read-out: Haematopoietic & Lymphoid tumors, EC50 (μM) DND-41
[41] = MV4-11, MV-4-11 cell line, read-out: Haematopoietic & Lymphoid tumors, EC50 (μM) MV-4-11
[42] = Rec1, REC-1 cell line, read-out: Haematopoietic & Lymphoid tumors, EC50 (μM) REC-1
[43] = SU-DHL-4, SUDHL4 cell line, read-out: Haematopoietic & Lymphoid tumors, EC50 (μM) SUDHL4
[44] = HL-60 cell line, read-out: Haematopoietic & Lymphoid tumors, EC50 (μM) HL-60
[45] = JM1 cell line, read-out: Haematopoietic & Lymphoid tumors, EC50 (μM) JM1
[46] = JURKAT, Clone E6-1 cell line, read-out: Haematopoietic & Lymphoid tumors, EC50 (μM) JURKAT, Clone E6-1
[47] = JeKo-1 cell line, read-out: Haematopoietic & Lymphoid tumors, EC50 (μM) JeKo-1
[48] = KASUMI-1 cell line, read-out: Haematopoietic & Lymphoid tumors, EC50 (μM) KASUMI-1
[49] = Loucy cell line, read-out: Haematopoietic & Lymphoid tumors, EC50 (μM) Loucy
[50] = MOLT-4 cell line, read-out: Haematopoietic & Lymphoid tumors, EC50 (μM) MOLT-4
[51] = TF-1 cell line, read-out: Haematopoietic & Lymphoid tumors, EC50 (μM) TF-1
[52] = TOLEDO cell line, read-out: Haematopoietic & Lymphoid tumors, EC50 (μM) TOLEDO
[53] = PA-1, PA1 cell line, read-out: Ovarian cancer, EC50 (μM) PA1
[54] = TOV112D, TOV-112D cell line, read-out: Ovarian cancer, EC50 (μM) TOV-112D
[55] = OV-90 cell line, read-out: Ovarian cancer, EC50 (μM) OV-90
[56] = OVCAR-3 cell line, read-out: Ovarian cancer, EC50 (μM) OVCAR-3
[57] = A-427, A427 cell line, read-out: Lung cancer, EC50 (μM) A427
[58] = HCC78, HCC-78 cell line, read-out: Lung cancer, EC50 (μM) HCC-78
[59] = NCI-H460 cell line, read-out: Lung cancer, EC50 (μM) NCI-H460
[60] = NCI-H522 cell line, read-out: Lung cancer, EC50 (μM) NCI-H522

Sequence of CLK3 (P49761 whole entry): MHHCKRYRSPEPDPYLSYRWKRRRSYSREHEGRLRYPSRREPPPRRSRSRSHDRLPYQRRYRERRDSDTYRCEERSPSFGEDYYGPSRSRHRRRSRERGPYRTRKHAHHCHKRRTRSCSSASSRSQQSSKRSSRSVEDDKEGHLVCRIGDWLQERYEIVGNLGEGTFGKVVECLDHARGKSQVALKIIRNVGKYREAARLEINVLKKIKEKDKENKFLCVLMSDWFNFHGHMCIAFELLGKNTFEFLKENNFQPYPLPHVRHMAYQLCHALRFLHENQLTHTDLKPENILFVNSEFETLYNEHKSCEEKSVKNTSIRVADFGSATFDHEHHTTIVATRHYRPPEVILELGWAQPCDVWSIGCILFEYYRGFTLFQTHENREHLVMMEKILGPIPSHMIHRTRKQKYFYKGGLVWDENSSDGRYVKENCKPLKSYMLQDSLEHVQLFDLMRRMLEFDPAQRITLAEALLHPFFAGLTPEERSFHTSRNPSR
T1 sequence (P49760 whole entry): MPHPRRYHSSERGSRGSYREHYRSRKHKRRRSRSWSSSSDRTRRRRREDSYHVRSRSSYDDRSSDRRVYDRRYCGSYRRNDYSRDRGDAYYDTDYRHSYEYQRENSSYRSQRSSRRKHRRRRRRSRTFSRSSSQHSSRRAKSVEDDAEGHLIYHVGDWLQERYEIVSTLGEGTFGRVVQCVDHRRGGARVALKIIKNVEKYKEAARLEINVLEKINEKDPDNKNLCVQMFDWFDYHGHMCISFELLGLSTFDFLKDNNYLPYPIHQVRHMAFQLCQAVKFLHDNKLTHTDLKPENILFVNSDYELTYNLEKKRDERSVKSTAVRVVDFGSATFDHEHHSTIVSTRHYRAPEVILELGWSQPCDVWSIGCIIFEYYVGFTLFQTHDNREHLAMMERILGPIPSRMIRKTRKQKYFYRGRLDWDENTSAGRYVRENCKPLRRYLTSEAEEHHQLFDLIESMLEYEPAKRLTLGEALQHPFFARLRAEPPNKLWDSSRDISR

## CN1CCN(c2cc(Nc3ncc4c(-c5ccc6ncccc6c5)c[nH]c4n3)ccn2)CC1 [Compound 67]
[1]; [19]
  EC50: 654 nM
[1]; [20]
  EC50: 860 nM
[1]; [21]
  EC50: 348 nM
[1]; [22]
  EC50: 4690 nM
[1]; [23]
  EC50: 756 nM
[2]
  EC50: 2.4 nM
[3]; [24]
  EC50: 660 nM
[3]; [25]
  EC50: 583 nM
[3]; [26]
  EC50: 1120 nM
[3]; [27]
  EC50: 267 nM
[3]; [28]
  EC50: 3470 nM
[3]; [29]
  EC50: 1900 nM
[3]; [30]
  EC50: 511 nM
[4]
  EC50: 10.3 nM
[5]; [31]
  EC50: 0.318 µM
[5]; [32]
  EC50: 1.2 µM
[5]; [33]
  EC50: 0.156 µM
[5]; [34]
  EC50: 0.264 µM
[5]; [35]
  EC50: 0.147 µM
[5]; [36]
  EC50: 0.644 µM
[6]; [37]
  EC50: 71 nM
[6]; [38]
  EC50: 3290 nM
[6]; [39]
  EC50: 3350 nM
[7]; [40]
  EC50: 0.221 µM
[7]; [41]
  EC50: 0.032 µM
[7]; [42]
  EC50: 0.149 µM
[7]; [43]
  EC50: 0.241 µM
[7]; [44]
  EC50: 1.54 µM
[7]; [45]
  EC50: 0.062 µM
[7]; [46]
  EC50: 0.298 µM
[7]; [47]
  EC50: 0.139 µM
[7]; [48]
  EC50: 0.11 µM
[7]; [49]
  EC50: 0.28 µM
[7]; [50]
  EC50: 0.381 µM
[7]; [51]
  EC50: 0.789 µM
[7]; [52]
  EC50: 0.108 µM
[8]
  EC50: 4960 nM
[9]
  EC50: 247 nM
[10]
  EC50: 2920 nM
[11]
  EC50: 2700 nM
[12]
  EC50: 38 nM
[13]
  EC50: 1340 nM
[14]
  EC50: 3700 nM
[15]
  EC50: 731 nM
[16]
  EC50: 1070 nM
[17]; [53]
  EC50: 0.768 µM
[17]; [54]
  EC50: 0.421 µM
[17]; [55]
  EC50: 2.86 µM
[17]; [56]
  EC50: 0.291 µM
[18]; [57]
  EC50: 0.502 µM
[18]; [58]
  EC50: 1.44 µM
[18]; [59]
  EC50: 0.919 µM
[18]; [60]
  EC50: 0.097 µM

## O=C1CCc2cccc(c2)-c2cncc3[nH]c(nc23)-c2n[nH]c3ccc(cc23)-c2cncc(c2)N1 [Compound 55]
[1]; [19]
  EC50: > 3500 nM
[1]; [20]
  EC50: 3360 nM
[1]; [21]
  EC50: > 3500 nM
[1]; [22]
  EC50: > 3500 nM
[1]; [23]
  EC50: > 3500 nM
[2]
  EC50: 1.9 nM
[3]; [24]
  EC50: > 3500 nM
[3]; [25]
  EC50: > 3500 nM
[3]; [26]
  EC50: > 3500 nM
[3]; [27]
  EC50: 1690 nM
[3]; [28]
  EC50: > 3500 nM
[3]; [29]
  EC50: > 3500 nM
[3]; [30]
  EC50: > 3500 nM
[4]
  EC50: 28.1 nM
[5]; [31]
  EC50: > 3.5 µM
[5]; [32]
  EC50: > 3.5 µM
[5]; [33]
  EC50: 1.97 µM
[5]; [34]
  EC50: > 3.5 µM
[5]; [35]
  EC50: > 3.5 µM
[5]; [36]
  EC50: > 3.5 µM
[6]; [37]
  EC50: 605 nM
[6]; [38]
  EC50: > 3500 nM
[6]; [39]
  EC50: > 3500 nM
[7]; [40]
  EC50: 0.776 µM
[7]; [41]
  EC50: 0.094 µM
[7]; [42]
  EC50: > 3.5 µM
[7]; [43]
  EC50: 0.983 µM
[7]; [44]
  EC50: > 3.5 µM
[7]; [45]
  EC50: 0.952 µM
[7]; [46]
  EC50: > 3.5 µM
[7]; [47]
  EC50: 0.357 µM
[7]; [48]
  EC50: 0.711 µM
[7]; [49]
  EC50: 1.36 µM
[7]; [50]
  EC50: > 3.5 µM
[7]; [51]
  EC50: > 3.5 µM
[7]; [52]
  EC50: 0.869 µM
[8]
  EC50: > 3500 nM
[9]
  EC50: 2800 nM
[10]
  EC50: > 3500 nM
[11]
  EC50: > 3500 nM
[12]
  EC50: 860 nM
[13]
  EC50: > 3500 nM
[14]
  EC50: > 3500 nM
[15]
  EC50: 812 nM
[16]
  EC50: 6890 nM
[17]; [53]
  EC50: > 3.5 µM
[17]; [54]
  EC50: > 3.5 µM
[17]; [55]
  EC50: > 3.5 µM
[17]; [56]
  EC50: 0.766 µM
[18]; [57]
  EC50: 3.1 µM
[18]; [58]
  EC50: > 3.5 µM
[18]; [59]
  EC50: > 3.5 µM
[18]; [60]
  EC50: 2.47 µM
